# Where a name gives a salt, the structure may show the parent alone.
# System: H1N1 (influenza A/New Caledonia/20/99)
# Experiment: microbe, parasite or virus in culture
# Type: cell-based
# Conditions: H1N1, A549, 48 h
row,SMILES,IC50 [µM]
1,"CC1(C)Cc2c(sc(NC(=O)c3ccc(NC4COC4)cc3)c2C(=O)O)C(C)(C)C1 [Compound #139, 5,5,7,7-Tetramethyl-2-[[4-(oxetan-3-ylamino)benzoyl]amino]-4,6-dihydrobenzothiophene-3-carboxylic acid]",0.011
2,"CC1(C)CCc2c(sc(NC(=O)c3ccc(OC(F)(F)F)cc3)c2C(=O)O)C1 [Compound #24, 6,6-Dimethyl-2-[[4-(trifluoromethoxy)benzoyl]amino]-5,7-dihydro-4H-benzothiophene-3-carboxylic acid]",0.16
3,"CC1(C)CCc2sc(NC(=O)c3ccc(N4CCC(O)CC4)cc3)c(C(=O)O)c21 [Compound #78, 2-[[4-(4-Hydroxy-1-piperidyl)benzoyl]amino]-4,4-dimethyl-5,6-dihydrocyclopenta[b]thiophene-3-carboxylic acid]",0.29
4,CC1CC(C)(C)Cc2sc(NC(=O)c3ccc(N(C)C4CCOCC4)cc3)c(C(=O)O)c21 (stereo not shown) [#171],0.0063
5,"COC1CCN(c2ccc(C(=O)Nc3sc4c(c3C(=O)O)CC(C)(C)CC4(C)C)cc2)CC1 [Compound #155, 2-[[4-(4-Methoxy-1-piperidyl)benzoyl]amino]-5,5,7,7-tetramethyl-4,6-dihydrobenzothiophene-3-carboxylic acid]",0.01
6,"COc1ccc(C(=O)Nc2sc3c(c2C(=O)O)CCC2(CC2)C3)cc1OC [Compound #30, 2-[(3,4-Dimethoxybenzoyl)amino]spiro[5,7-dihydro-4H-benzothiophene-6,1′-cyclopropane]-3-carboxylic acid]",0.07
7,"COc1ccc(C(=O)Nc2sc3c(c2C(=O)O)CC(C)(C)CC3)cc1OC [Compound #27, 2-[(3,4-Dimethoxybenzoyl)amino]-5,5-dimethyl-6,7-dihydro-4H-benzothiophene-3-carboxylic acid]",0.04
8,"CC1(C)Cc2c(sc(NC(=O)c3ccc(N4CCC(O)CC4)cc3)c2C(=O)O)C(C)(C)C1 [Compound #34, 2-[[4-(4-Hydroxy-1-piperidyl)benzoyl]amino]-5,5,7,7-tetramethyl-4,6-dihydrobenzothiophene-3-carboxylic acid]",0.113
9,"CC(=O)N1CC(Nc2ccc(C(=O)Nc3sc4c(c3C(=O)O)CC(C)(C)CC4(C)C)cc2)C1 [Compound #133, 2-[[4-[(1-Acetylazetidin-3-yl)amino]benzoyl]amino]-5,5,7,7-tetramethyl-4,6-dihydrobenzothiophene-3-carboxylic acid]",0.75
10,"COCCN(C)c1ccc(C(=O)Nc2sc3c(c2C(=O)O)CC(C)(C)CC3(C)C)cc1 [Compound #150, 2-[[4-[2-Methoxyethyl(methyl)amino]benzoyl]amino]-5,5,7,7-tetramethyl-4,6-dihydrobenzothiophene-3-carboxylic acid]",0.0039
11,"CC1(C)CCc2sc(NC(=O)c3ccc(N4CCOCC4)nn3)c(C(=O)O)c2C1 [#227, 5,5-Dimethyl-2-[(6-morpholinopyridazine-3-carbonyl)amino]-6,7-dihydro-4H-benzothiophene-3-carboxylic acid]",1.39
12,"CN(c1ccc(C(=O)Nc2sc3c(c2C(=O)O)CC(C)(C)CC3)cc1)C1CCOCC1 [#160, 5,5-Dimethyl-2-[[4-[methyl(tetrahydropyran-4-yl)amino]benzoyl]amino]-6,7-dihydro-4H-benzothiophene-3-carboxylic acid]",0.006
13,"CC1(C)CCc2sc(NC(=O)c3ccn(CC4CCOCC4)n3)c(C(=O)O)c2C1 [#228, 5,5-Dimethyl-2-[[1-(tetrahydropyran-4-ylmethyl)pyrazole-3-carbonyl]amino]-6,7-dihydro-4H-benzothiophene-3-carboxylic acid]",0.9
14,"COCCNc1ccc(C(=O)Nc2sc3c(c2C(=O)O)CC(C)(C)CC3)cc1 [#173, 2-[[4-(2-Methoxyethylamino)benzoyl]amino]-5,5-dimethyl-6,7-dihydro-4H-benzothiophene-3-carboxylic acid]",0.024
15,"CC1(C)Cc2c(sc(NC(=O)c3ccc(N4CC5(COC5)C4)cc3)c2C(=O)O)C(C)(C)C1 [Compound #143, 5,5,7,7-Tetramethyl-2-[[4-(2-oxa-6-azaspiro[3.3]heptan-6-yl)benzoyl]amino]-4,6-dihydrobenzothiophene-3-carboxylic acid]",0.16
16,"O=C(Nc1sc2c(c1C(=O)O)CCC1(CC1)C2)c1ccc(N2CCOCC2)cc1 [Compound #31, 2-[(4-Morpholinobenzoyl)amino]spiro[5,7-dihydro-4H-benzothiophene-6,1′-cyclopropane]-3-carboxylic acid]",0.1
17,"CC1(C)CCc2sc(NC(=O)c3ccc(NC4CCOCC4)cc3)c(C(=O)O)c2C1 [#161, 5,5-Dimethyl-2-[[4-(tetrahydropyran-4-ylamino)benzoyl]amino]-6,7-dihydro-4H-benzothiophene-3-carboxylic acid]",0.015
18,"CC1(C)Cc2c(sc(NC(=O)c3ccc(NC4CCNCC4)cc3)c2C(=O)O)C(C)(C)C1 [Compound #131, hydrochloride salt]",0.35
19,"CC1(C)Cc2c(sc(NC(=O)c3ccccn3)c2C(=O)O)C(C)(C)C1 [Compound #90, 5,5,7,7-Tetramethyl-2-(pyridine-2-carbonylamino)-4,6-dihydrobenzothiophene-3-carboxylic acid]",0.6

row,SMILES,IC50 [µM]
1,"CC1(C)CCc2sc(NC(=O)c3cccc(OC(F)F)c3)c(C(=O)O)c21 [Compound #98, 2-[[3-(Difluoromethoxy)benzoyl]amino]-4,4-dimethyl-5,6-dihydrocyclopenta[b]thiophene-3-carboxylic acid]",0.8
2,"COCCOc1ccc(C(=O)Nc2sc3c(c2C(=O)O)CC(C)(C)CC3(C)C)cc1 [#168, 2-[[4-(2-Methoxyethoxy)benzoyl]amino]-5,5,7,7-tetramethyl-4,6-dihydrobenzothiophene-3-carboxylic acid]",0.0232
3,"CC1(C)CCc2sc(NC(=O)c3ccc(N4CCOCC4)nc3)c(C(=O)O)c2C1 [Compound #65, 5,5-Dimethyl-2-[(6-morpholinopyridine-3-carbonyl)amino]-6,7-dihydro-4H-benzothiophene-3-carboxylic acid]",0.2
4,"COC1CN(c2ccc(C(=O)Nc3sc4c(c3C(=O)O)C(C)CC(C)(C)C4)cc2)C1 (stereo not shown) [Compound #153, 2-[[4-(3-Methoxyazetidin-1-yl)benzoyl]amino]-4,6,6-trimethyl-5,7-dihydro-4H-benzothiophene-3-carboxylic acid]",0.014
5,"O=C(Nc1sc2c(c1C(=O)O)CCC1(CC1)C2)c1ccccc1 [Compound #29, 2-Benzamidospiro[5,7-dihydro-4H-benzothiophene-6,1′-cyclopropane]-3-carboxylic acid]",0.09
6,"CC1(C)Cc2c(sc(NC(=O)c3ccc(NCC4CCCCO4)cc3)c2C(=O)O)C(C)(C)C1 (stereo not shown) [#166, 5,5,7,7-Tetramethyl-2-[[4-(tetrahydropyran-2-ylmethylamino)benzoyl]amino]-4,6-dihydrobenzothiophene-3-carboxylic acid]",0.0067
7,"CC1(C)CCc2c(sc(NC(=O)c3ccc(F)cc3F)c2C(=O)O)C1 [Compound #17, 2-[(2,4-Difluorobenzoyl)amino]-6,6-dimethyl-5,7-dihydro-4H-benzothiophene-3-carboxylic acid]",0.26
8,"CC1(C)Cc2c(sc(NC(=O)c3ccc(OCC4CCOCC4)cc3)c2C(=O)O)C(C)(C)C1 [#162, 5,5,7,7-Tetramethyl-2-[[4-(tetrahydropyran-4-ylmethoxy)benzoyl]amino]-4,6-dihydrobenzothiophene-3-carboxylic acid]",0.039
9,"CC1(C)CCc2sc(NC(=O)c3cnc(N4CCOCC4)nc3)c(C(=O)O)c2C1 [#209, 5,5-Dimethyl-2-[(2-morpholinopyrimidine-5-carbonyl)amino]-6,7-dihydro-4H-benzothiophene-3-carboxylic acid]",0.82
10,"COCC1CN(c2ccc(C(=O)Nc3sc4c(c3C(=O)O)CC(C)(C)CC4(C)C)cc2)C1 [#169, 2-[[4-[3-(Methoxymethyl)azetidin-1-yl]benzoyl]amino]-5,5,7,7-tetramethyl-4,6-dihydrobenzothiophene-3-carboxylic acid]",0.0155
11,"CC1(C)CCc2c(sc(NC(=O)c3ccc(F)cc3)c2C(=O)O)C1 [Compound #19, 2-[(4-Fluorobenzoyl)amino]-6,6-dimethyl-5,7-dihydro-4H-benzothiophene-3-carboxylic acid]",0.11
12,"CC1(C)CCc2c(sc(NC(=O)c3ccc(N4CCOCC4)cn3)c2C(=O)O)C1 [#229, 6,6-Dimethyl-2-[(5-morpholinopyridine-2-carbonyl)amino]-5,7-dihydro-4H-benzothiophene-3-carboxylic acid]",0.37
13,"CC1(C)Cc2c(sc(NC(=O)c3ccc(NC4CCCOC4)cc3)c2C(=O)O)C(C)(C)C1 (stereo not shown) [Compound #142, 5,5,7,7-Tetramethyl-2-[[4-(tetrahydropyran-3-ylamino)benzoyl]amino]-4,6-dihydrobenzothiophene-3-carboxylic acid]",0.0064
14,"COc1ccc(C(=O)Nc2sc3c(c2C(=O)O)CCC(C)(C)C3)nc1 [Compound #25, 2-[(5-Methoxypyridine-2-carbonyl)amino]-6,6-dimethyl-5,7-dihydro-4H-benzothiophene-3-carboxylic acid]",0.09
15,"COCCCNc1ccc(C(=O)Nc2sc3c(c2C(=O)O)CC(C)(C)CC3(C)C)cc1 [Compound #140, 2-[[4-(3-Methoxypropylamino)benzoyl]amino]-5,5,7,7-tetramethyl-4,6-dihydrobenzothiophene-3-carboxylic acid]",0.0034
16,"CC1(C)Cc2c(sc(NC(=O)c3ccc(NCC4COC4)cc3)c2C(=O)O)C(C)(C)C1 [Compound #59, 5,5,7,7-Tetramethyl-2-[[4-(oxetan-3-ylmethylamino)benzoyl]amino]-4,6-dihydrobenzothiophene-3-carboxylic acid]",0.01
17,"CC1(C)CCc2sc(NC(=O)c3ccccc3)c(C(=O)O)c2C1 [Compound #26, 2-Benzamido-5,5-dimethyl-6,7-dihydro-4H-benzothiophene-3-carboxylic acid]",0.0849
18,"CC1(C)CCc2c(sc(NC(=O)c3ccc(N4CCOCC4)nc3)c2C(=O)O)C1 [#204, 6,6-Dimethyl-2-[(6-morpholinopyridine-3-carbonyl)amino]-5,7-dihydro-4H-benzothiophene-3-carboxylic acid]",0.26
